Measured values published in publication PMC9609273 (Pharmaceuticals, 2022).
≈ marks a conversion by molar mass, not a printed value. Where two headings read alike, the source gives them in different places.

What was measured:
[1] = system: Normal Lung Fibroblasts (IMR-90); format: cell-based, human; conditions: read-out: Toxicity IC50 IMR-90
[2] = system: Human non-tumorigenic lung epithelial cells (BEAS-2B); format: cell-based; conditions: read-out: Toxicity IC50 BEAS-2B
Mtb H37Rv = experiment: microbe, parasite or virus in culture; format: cell-based, Mycobacterium tuberculosis
[3] = system: Human Embryonic Kidney cells (HEK 293); conditions: for IC50: read-out: Toxicity IC50 HEK293
[4] = 6.0 × 10^–5 M in DMSO and 28% ethanol-water, 24 h, 25 °C
[5] = MABA, Mtb H37Rv, one week at 37 °C

3-((2-Isonicotinoylhydrazono)methyl)phenyl quinoline-8-sulfonate [SIH13]
IC50 [1]: 100 µM | IC50 [2]: > 100 µM | MIC (Mtb H37Rv): 0.31 µM | IC50 [3]: 58.3 µM

3-((2-Isonicotinoylhydrazono)methyl)phenyl 2,4,6-trimethylbenzenesulfonate [SIH3]
IC50 ([1]; MTT, 48 h, triplicate): > 100 µM | IC50 ([2]; MTT, 48 h, triplicate): > 100 µM | MIC (Mtb H37Rv; [5]): 0.62 µM | IC50 ([3]; MTT, 48 h, triplicate): 100 µM

3-((2-Isonicotinoylhydrazono)methyl)phenyl 4-methoxybenzenesulfonate [SIH4]
Change in λmax values (stability of hydrazone) [4]: no significant change in λmax values | IC50 ([1]; MTT, 48 h, triplicate): > 100 µM | IC50 ([2]; MTT, 48 h, triplicate): > 100 µM | MIC (Mtb H37Rv; [5]): 0.31 µM | Cytotoxicity against HEK293 (in words) ([3]; MTT): moderately toxic | IC50 ([3]; MTT, 48 h, triplicate): 40.8 µM

3-((2-Isonicotinoylhydrazono)methyl)phenyl 4-acetamidobenzenesulfonate [SIH11]
IC50 ([1]; MTT, 48 h, triplicate): > 100 µM | IC50 ([2]; MTT, 48 h, triplicate): > 100 µM | MIC (Mtb H37Rv; [5]): 0.62 µM | IC50 ([3]; MTT, 48 h, triplicate): > 100 µM

3-((2-Isonicotinoylhydrazono)methyl)phenyl 4-iodobenzenesulfonate [SIH7]
IC50 ([1]; MTT, 48 h, triplicate): 100 µM | IC50 ([2]; MTT, 48 h, triplicate): > 100 µM | MIC (Mtb H37Rv; [5]): 0.62 µM | IC50 ([3]; MTT, 48 h, triplicate): > 100 µM

3-((2-Isonicotinoylhydrazono)methyl)phenyl 4-methylbenzenesulfonate [SIH1]
Change in λmax values (stability of hydrazone) [4]: no significant change in λmax values | IC50 ([1]; MTT, 48 h, triplicate): > 100 µM | IC50 ([2]; MTT, 48 h, triplicate): > 100 µM | MIC (Mtb H37Rv; [5]): 0.31 µM | Cytotoxicity against HEK293 (in words) ([3]; MTT): moderately toxic | IC50 ([3]; MTT, 48 h, triplicate): 57.2 µM

3-((2-Isonicotinoylhydrazono)methyl)phenyl 4-chlorobenzenesulfonate [SIH6]
IC50 ([1]; MTT, 48 h, triplicate): > 100 µM | IC50 ([2]; MTT, 48 h, triplicate): > 100 µM | MIC (Mtb H37Rv; [5]): 0.62 µM | IC50 ([3]; MTT, 48 h, triplicate): > 100 µM

3-((2-Isonicotinoylhydrazono)methyl)phenyl 2,5-dichlorobenzenesulfonate [SIH8]
IC50 ([1]; MTT, 48 h, triplicate): 100 µM | IC50 ([2]; MTT, 48 h, triplicate): > 100 µM | MIC (Mtb H37Rv; [5]): 0.62 µM | IC50 ([3]; MTT, 48 h, triplicate): > 100 µM

3-((2-Isonicotinoylhydrazono)methyl)phenyl 4-bromobenzenesulfonate [SIH5]
IC50 ([1]; MTT, 48 h, triplicate): 90.3 µM | IC50 ([2]; MTT, 48 h, triplicate): > 100 µM | MIC (Mtb H37Rv; [5]): 0.62 µM | IC50 ([3]; MTT, 48 h, triplicate): 100 µM

3-((2-Isonicotinoylhydrazono)methyl)phenyl [1,1′-biphenyl]-4-sulfonate [SIH12]
Change in λmax values (stability of hydrazone) [4]: no significant change in λmax values | IC50 ([1]; MTT, 48 h, triplicate): 57.7 µM | IC50 ([2]; MTT, 48 h, triplicate): > 100 µM | MIC (Mtb H37Rv; [5]): 0.31 µM | Cytotoxicity against HEK293 (in words) ([3]; MTT): moderately toxic | IC50 ([3]; MTT, 48 h, triplicate): 52.4 µM

3-((2-Isonicotinoylhydrazono)methyl)phenyl 4-(tert-butyl)benzenesulfonate [SIH2]
IC50 ([1]; MTT, 48 h, triplicate): 89.5 µM | IC50 ([2]; MTT, 48 h, triplicate): > 100 µM | MIC (Mtb H37Rv; [5]): 0.62 µM | IC50 ([3]; MTT, 48 h, triplicate): > 100 µM

NNC(=O)c1ccncc1 [Isoniazid, isonicotinic acid hydrazide, reference compound]
MIC (Mtb H37Rv; Mycobacterium tuberculosis, 168 h, MABA, Mtb H37Rv, one week at 37 °C): 0.31 µM (≈ 0.0425 µg/mL)

3-((2-Isonicotinoylhydrazono)methyl)phenyl 4-nitrobenzenesulfonate [SIH9]
IC50 ([1]; MTT, 48 h, triplicate): > 100 µM | IC50 ([2]; MTT, 48 h, triplicate): > 100 µM | MIC (Mtb H37Rv; [5]): 0.62 µM | IC50 ([3]; MTT, 48 h, triplicate): 100 µM

3-((2-Isonicotinoylhydrazono)methyl)phenyl 3-nitrobenzenesulfonate [SIH10]
IC50 ([1]; MTT, 48 h, triplicate): > 100 µM | IC50 ([2]; MTT, 48 h, triplicate): > 100 µM | MIC (Mtb H37Rv; [5]): 0.62 µM | IC50 ([3]; MTT, 48 h, triplicate): > 100 µM
